From patent US5034548A, “Steroid derivatives useful as hypocholesterolemics” (E. I. Du Pont de Nemours and Company, priority 1990, dated 1991) come the findings set out here.

Test [1] deals with 3-Hydroxy-3-Methylglutaryl Coenzyme A Reductase (HMGR). Put plainly: HMGR Suppression Assay in digitonin-permeabilized CHO cells. Format: cell-based, Chinese Hamster. As to conditions: for IC50: 6 hr incubation at 37°, amount to suppress HMGR activity by 50% relative to controls; for effect on measured HMGR activity: tested under these same conditions. As to the method:
The ability of the compounds of Formula I to suppress the activity of HMGR, the rate limiting enzyme of cholesterol biosynthesis, was tested as follows. Chinese Hamster Ovary (CHO) cells were divided twice weekly and were maintained in McCoy's 5A medium supplemented with 1% Cab-O-Sil delipidated Fetal Bovine Serum (FBS) (obtained from Gibco Laboratories, Chagrin Falls, Ohio). Cells were harvested during the logarithmic phase of growth and cell cultures were prepared by adding 0.5×10^6 cells to wash well in a 24 well cluster dish (obtained from Costar, Data Packaging Corp., Cambridge, Mass.) employing 1 mL of the above medium per each well. […] Control cells were treated in an identical fashion to those which received test compound, except they were incubated with the BSA and ethanol suspension only.
Specifically, the medium in each well was aspirated and the cells rinsed with a 50 mM solution of phosphate buffered saline (PBS). One mL of 30 μg/mL of digitonin in CSK buffer (prepared using 10 mM Pipes [piperazine-N,N'-bis(2-ethansulfonic)acid'], 100 mM KCl, 2.5 mM MgCl2, 300 mM sucrose, 1 mM EGTA, pH 6.8) was added to each well and incubated for 10 min at 22° to permeabilize the cells. The buffer was carefully aspirated and the wells were rinsed twice each time with 1 mL of PBS. HMGR activity was measured directly by adding 75 μL of PIB buffer (50 mM potassium phosphate, 1 mM Na2 EDTA, 10 mM dithiothreitol, pH 7.4) to each well and incubating the cells for 30 minutes at 37° as described above. […] HMG-Coenzyme A (15 DPM/pmol), pH 7.4. The assay mixture was incubated for 30 min at 37° and terminated by the addition of 70 μL of [^3 H]-mevalonic acid (35,000 DPM/assay), 0.15 mg/mL in 3 N HCl. The reaction was left to lactonize for an additional 30 min at 37° or overnight at room temperature.
Reaction products were separated by thin layer chromatography on silica gel G (obtained from Analtech, Newark, Del.) developed in an unsaturated environment with acetone:benzene (3:2, v:v). The band corresponding to mevalonolactone was identified by exposure to iodine vapor and was scraped into counting vials. The extent of conversion of starting substrate, HMG-CoA, to mevalonic acid was determined by liquid scintillation counting in Biofluor (obtained from New England Nuclear, Boston, Mass). Corrections for recovery and blank values were made for each sample. Protein determinations were made by the Bio-rad (Bio-Rad, Richmond, Cal.) dye binding assay according to the manufacturer's instruction using bovine serum albumin as standard. Cellular protein was solubilized from culture dishes by the addition of 20 μL of 16 N KOH and assayed directly for protein amount. Suppression values are expressed as the amount of compound required to suppress HMGR activity by 50% relative to that of the controls.

In test [2] the test system is cholesterol synthesis in CHO cells. The test can be described thus: De novo cholesterol synthesis: incorporation of radiolabeled acetate into cholesterol in CHO cells. It is filed as cell-based, Chinese Hamster. As to conditions: for Cholesterol Synthesis (DPMs): 17 hr + 2 hr with [14C]-acetic acid, Control 38855. How it is done:
The ability of the compounds of Formula I to decrease de novo cholesterol synthesis was tested by measuring the incorporation of radiolabeled acetate into cholesterol synthesized in CHO cells. To conduct this experiment, CHO cells were plated at 0.3×10^6 cells per 15×60 mm tissue culture dish in 5 mL of McCoy's modified medium (Gibco Laboratories) containing 1% Cab-O-Sil delipidated FBS and incubated for 48 hours at 37° in a 5% CO2, 95% air environment. Test compounds in a 2.5% suspension of BSA (fatty acid free) in ethanol were then added to the cultures such that the final ethanol and BSA concentrations were 0.5% and […], respectively. Control cultures received ethanol and BSA alone. The cultures containing test compounds were then incubated at 37° in a 5% Co, 95% air environment for 17 hr before the addition of [1,2-^14 C]-acetic acid (57 μCi/mmol); obtained from New England Nuclear, Boston, Mass.) at a concentration of 10 μCi/mL for 2 additional hr.
The cells were harvested by washing the cells twice with 5 mL of cold PBS and scraping the cells into 1 mL PBS. The cell-containing solution was then transferred to 15 mL extraction tubes and treated with 1 mL of 90% methanol (containing 15% KOH, 100 μg/mL butylated hydroxytoluene). All samples were saponified for 1 hr at 80° and the non-saponifiable lipids then extracted with petroleum ether. The petroleum ether fractions were dried under nitrogen, resuspended in ethanol, counted and analyzed by reverse phase HPLC at 45° using an Ultrashpere Octyl column (from Altex Scientific Inc., Berkeley, Calif.) with a mobile phase of acetonitrile:methanol:water (44:44:12). The amount of cholesterol synthesis is measured by the amount of radiolabeled acetate incorporated into the cholesterol peak. The percent of cholesterol synthesis in the treated culture is calculated based upon the control culture.

The target of test [3] is T1, Lanosta-8,24-dien-3β-ol 14α-methyl demethylase (Rattus norvegicus, UniProt Q64654).
T1 construct: determined in rat depatic microsomal preparations; from tissue; host or cells: rat hepatic microsomes
T1 sequence (Q64654 1-503): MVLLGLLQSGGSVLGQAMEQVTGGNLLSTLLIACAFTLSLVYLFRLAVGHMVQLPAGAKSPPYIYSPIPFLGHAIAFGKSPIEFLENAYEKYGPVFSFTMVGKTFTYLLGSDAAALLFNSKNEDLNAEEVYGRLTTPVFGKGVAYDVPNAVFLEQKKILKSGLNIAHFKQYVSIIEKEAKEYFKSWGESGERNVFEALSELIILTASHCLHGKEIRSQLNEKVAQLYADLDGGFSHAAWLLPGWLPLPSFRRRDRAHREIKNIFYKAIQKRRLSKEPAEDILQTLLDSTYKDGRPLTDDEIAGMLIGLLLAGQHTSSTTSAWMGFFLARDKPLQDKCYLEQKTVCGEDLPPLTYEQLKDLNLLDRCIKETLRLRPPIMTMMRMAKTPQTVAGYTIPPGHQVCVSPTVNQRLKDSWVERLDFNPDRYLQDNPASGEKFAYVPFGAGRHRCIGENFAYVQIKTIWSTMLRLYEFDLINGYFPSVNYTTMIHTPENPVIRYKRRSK
Put plainly: Lanosta-8,24-dien-3β-ol 14α-Methyl Demethylase Inhibition Assay. Format: biochemical. The following applies: for IC50: rat hepatic microsomal preparations, 100 μM lanost-8-en-3β-ol substrate, pH not given, test compounds 0 to 100 μM; for effect on lanosta-8,24-dien-3β-ol 14α-methyl demethylase activity: rat microsomal preparations. As to the method:
Lanosta-8,24-dien-3β-ol 14α-methyl demethylase activity was determined in rat depatic microsomal preparations as described in Trzaskos et al., J. Biol. Chem., 261, 16937-16942 (1986). Specifically, test compounds were added to assay mixtures as detergent suspensions with substrate employing 5 mg Triton WR-1339, 100 μM lanost-8-en-3β-ol substrate, and test compounds ranging from 0 to 100 μM. The inhibitor/substrate/detergent suspension was incubated with 2 mg microsomal protein for 5 min at 37° followed by a 10 min incubation initiated by the addition of cofactors required for the reaction. […] Inhibition values are expressed as the amount of compound required to inhibit lanosta-8,24-dien-3β-ol 14α-methyldemethylase activity by 50% relative to that of the controls.

Setting [4] is: Cricetulus griseus, 19 h, 10 μM, percent of control culture (100).

What is called IC50 is the concentration at which inhibition is half-maximal. A higher IC50 goes with weaker potency in that assay. In the case of `C=CC(O)[C@@]12CC[C@H]([C@H](C)CCCC(C)C)[C@@]1(C)CCC1=C2CC[C@H]2C(C)(C)[C@@H](O)CC[C@]12C` (single isomer, unassigned) [Compound 11a, 4,4-dimethyl-14α-(1'-hydroxy-2'-propenyl)-5α-cholest-8-en-3β-ol], half-maximal inhibition in test [1] (IC50) was put at 60 nM. For the same molecule, in test [2] (1 μM), the “Cholesterol Synthesis (DPMs)” value was 360 DPMs.

`C=CC(O)[C@@]12CC[C@H]([C@H](C)CCCC(C)C)[C@@]1(C)CCC1=C2CC[C@H]2C(C)(C)[C@@H](O)CC[C@]12C` (single isomer, unassigned) [Compound 12a, 4,4-dimethyl-14α-(1'-hydroxy-2'-propenyl)-5α-cholest-8-en-3β-ol]: the IC50 came out at 130 nM in test [1] and 3200 nM in test [3]. For the same molecule, the “Cholesterol Synthesis (DPMs)” value in test [2] (1 μM) is 636 DPMs. Besides, the activity at 1 µM in test [2] (Cricetulus griseus, 19 h, 1 μM, percent of control culture (100)) is 2%.

On to `CC(C)=CCC[C@@H](C)[C@H]1CC[C@@]2(C)C3=C(CC[C@]12C)[C@@]1(C)CC[C@H](O)C(C)(C)[C@@H]1CC3` [Compound 1, lanosta-8,24-dien-3β-ol, reference compound], for which the “effect on measured HMGR activity” value in test [1] is “without effect”. Further, the “effect on lanosta-8,24-dien-3β-ol 14α-methyl demethylase activity” value in test [3] is reported as “clearly served as substrates”.

Consider `CC(C)CCC[C@@H](C)[C@H]1CC[C@@]2(C(F)F)C3=C(CC[C@]12C)[C@@]1(C)CC[C@H](O)C(C)(C)[C@@H]1CC3` [Compound 9a, 32,32-difluoro-lanost-8-en-3β-ol], for which the IC50 in test [1] is 1300 nM; in test [3], 16000 nM. The “Cholesterol Synthesis (DPMs)” value in test [2] (10 μM) came to 3615 DPMs. The activity at 10 µM in test [2] (setting [4]) worked out at 9%.

For the molecule `CC(C)CCC[C@@H](C)[C@H]1CC[C@@]2(C(F)F)C3=CC[C@H]4C(C)(C)[C@@H](O)CC[C@]4(C)[C@H]3CC[C@]12C` [Compound 9b, 32,32-difluoro-lanost-7-en-3β-ol], the half-maximal inhibitory concentration (IC50) was 1400 nM in test [1] and 37000 nM in test [3]. The “Cholesterol Synthesis (DPMs)” value in test [2] (10 μM) is recorded as 10125 DPMs. Also, in test [2] (setting [4]), the activity at 10 µM was determined as 26%.

As to `CC(C)CCC[C@@H](C)[C@H]1CC[C@@]2(C=NO)C3=C(CC[C@]12C)[C@@]1(C)CC[C@H](O)C(C)(C)[C@@H]1CC3` [Compound 15a, lanost-8-en-32-aldoxime-3β-ol], the IC50 in test [1] was 40 nM; in test [3], 1100 nM.

On to `CC(C)CCC[C@@H](C)[C@H]1CC[C@@]2(C=NO)C3=CC[C@H]4C(C)(C)[C@@H](O)CC[C@]4(C)[C@H]3CC[C@]12C` [Compound 15b, lanost-7-en-32-aldoxime-3β-ol], for which the values for the IC50 in test [1] and in test [3] were 1400 nM and 3000 nM, respectively. In test [2] (0.5 μM), the “Cholesterol Synthesis (DPMs)” value amounted to 1534 DPMs. For the same molecule, the activity at 0.5 µM in test [2] (Cricetulus griseus, 19 h, 0.5 μM, percent of control culture (100)) came out at 4%.

For the molecule `CC(C)CCC[C@@H](C)[C@H]1CC[C@@]2(C#N)C3=C(CC[C@]12C)[C@@]1(C)CC[C@H](O)C(C)(C)[C@@H]1CC3` [Compound 17a, 14α-cyano-4,4-dimethyl-5α-cholest-8-en-3β-ol], the half-maximal inhibitory concentration (IC50) was 1400 nM in test [1] and 11000 nM in test [3].

For the molecule `CC(C)CCC[C@@H](C)[C@H]1C[C@H](F)[C@@]2(C)C3=CC[C@H]4C(C)(C)[C@@H](O)CC[C@]4(C)[C@H]3CC[C@]12C` [Compound 26b, 15α-fluoro-lanost-7-en-3β-ol], the figures for the IC50 in test [1] and in test [3] were 1000 nM and greater than 100000 nM, respectively. Further, the “Cholesterol Synthesis (DPMs)” value in test [2] (10 μM) was determined as 12279 DPMs. Also, the activity at 10 µM in test [2] (setting [4]) stood at 32%.

`CC(C)CCC[C@@H](C)[C@H]1C[C@H](F)[C@@]2(C)C3=CC[C@H]4C[C@@H](O)CC[C@]4(C)[C@H]3CC[C@]12C` [Compound 27b, 15α-fluoro-14α-methyl-5α-cholest-7-en-3β-ol]: the figures for the IC50 in test [1] and in test [3] were 500 nM and greater than 100000 nM, respectively.

With `CC(C)CCC[C@@H](C)[C@H]1C[C@H](O)[C@@]2(O)C3=C(CC[C@]12C)[C@@]1(C)CC[C@H](O)C[C@@H]1CC3` [Compound 35a, 5α-cholest-8-en-3β,14α,15α-triol], the IC50 in test [1] is 400 nM; in test [3] it was greater than 100000 nM.

Turning to `CC(C)CCC[C@@H](C)[C@H]1CC[C@H]2[C@@H]3CC=C4C[C@@H](O)CC[C@]4(C)[C@H]3CC[C@]12C` [cholesterol], in test [1], the “effect on measured HMGR activity” value is “without effect”. Moreover, the “effect on lanosta-8,24-dien-3β-ol 14α-methyl demethylase activity” value in test [3] is on record as “without effect”.

Consider `CC(C)CCC[C@@H](C)[C@H]1CC[C@@]2(C)C3=C(CC[C@]12C)[C@@]1(C)CC[C@H](O)C(C)(C)[C@@H]1CC3` [lanost-8-en-3β-ol, reference compound], for which the “effect on measured HMGR activity” value in test [1] is recorded as “without effect”. The “effect on lanosta-8,24-dien-3β-ol 14α-methyl demethylase activity” value in test [3] is “clearly served as substrates”.
